*1 amine or outer side, *2 acyl side, *3 side chain or, on linkers, in order; H or OH if unused. Where a SMILES comes first, the peptide text is derived from it. Bridges are numbered along the chain shown (N, C = ends). [ ]: non-standard residue; d: D form. The star is where a group is joined. hPhe(3,5-F2-4-CF3) = N[C@@H](CCc1cc(F)c(C(F)(F)F)c(F)c1)C(=O)O; NPrPhe(4-CF3) = CCCN[C@@H](Cc1ccc(C(F)(F)F)cc1)C(=O)O; NMeAbu(4,4,4-F3) = CN[C@@H](CC(F)(F)F)C(=O)O; X16 = O=C([C@@H](N[*:1])C1CC(F)(F)C1)[*:2]; NMeGly(cPent) = CN[C@H](C(=O)O)C1CCCC1; Ac4c(3,3-F2) = NC1(C(=O)O)CC(F)(F)C1; X13 = CCC[C@](C)(N[*:1])C(=O)[*:2]; Nva(3-Et) = CCC(CC)[C@H](N)C(=O)O; αMeI = CC[C@H](C)[C@](C)(N)C(=O)O; αMeF = C[C@](N)(Cc1ccccc1)C(=O)O; NMeD = CN[C@@H](CC(=O)O)C(=O)O; Ac4c(3-oxa) = NC1(C(=O)O)COC1; NMeL = CN[C@@H](CC(C)C)C(=O)O; αMeL = CC(C)C[C@](C)(N)C(=O)O; αMeV = CC(C)[C@](C)(N)C(=O)O; αMeS = C[C@](N)(CO)C(=O)O; Morpholide = C1CN(*)CCO1; Ac5c = NC1(C(=O)O)CCCC1; Aze = O=C(O)[C@@H]1CCN1; Sar = CNCC(=O)O; Allyl = C=CC*
What was measured:
[1] = molecular target: GDP-bound HRAS wild-type protein (Homo sapiens, UniProt P01112); assay: Binding to HRAS by surface plasmon resonance (SPR), Single Cycle Kinetics; details: KD ratio HRAS/KRAS, SPR
Chain of GDP-bound HRAS wild-type protein (P01112 whole entry): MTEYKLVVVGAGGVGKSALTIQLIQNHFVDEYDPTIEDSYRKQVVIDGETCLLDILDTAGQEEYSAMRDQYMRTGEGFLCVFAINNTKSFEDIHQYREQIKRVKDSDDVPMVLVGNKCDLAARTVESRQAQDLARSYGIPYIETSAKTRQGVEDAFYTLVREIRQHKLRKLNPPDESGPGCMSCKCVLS

[2] = molecular target: GDP-bound NRAS wild-type protein (Homo sapiens, UniProt P01111); assay: Binding to NRAS by surface plasmon resonance (SPR), Single Cycle Kinetics; details: KD ratio NRAS/KRAS, SPR
Chain of GDP-bound NRAS wild-type protein (P01111 whole entry): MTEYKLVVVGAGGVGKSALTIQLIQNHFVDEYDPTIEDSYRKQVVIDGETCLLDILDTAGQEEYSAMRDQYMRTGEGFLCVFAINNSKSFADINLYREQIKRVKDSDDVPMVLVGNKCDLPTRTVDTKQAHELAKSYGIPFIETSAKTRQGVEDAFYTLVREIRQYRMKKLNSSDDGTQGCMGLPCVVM

Compound	HRAS/KRAS (ratio of KD value with respect to GDP-bound HRAS wild-type protein to KD value with respect to KRAS) [1]	NRAS/KRAS (ratio of KD value with respect to GDP-bound NRAS wild-type protein to KD value with respect to KRAS) [2]
CCCN1C(=O)CN(C)C(=O)[C@@H]2CCN2C(=O)[C@H]([C@@H](C)CC)NC(=O)[C@H](CC(C)C)N(C)C(=O)C[C@@H](C(=O)N2CCOCC2)N(C)C(=O)[C@H](C2CCCC2)N(C)C(=O)[C@](C)(C(C)C)NC(=O)[C@@H]2CCCN2C(=O)[C@H](CCc2cc(F)c(C(F)(F)F)c(F)c2)NC(=O)CN(C)C(=O)[C@@H]1Cc1ccc(C(F)(F)F)cc1 [PP0773] ([NMeL]I[Aze][Sar][NPrPhe(4-CF3)][Sar][hPhe(3,5-F2-4-CF3)]P[αMeV][NMeGly(cPent)][NMeD]-Morpholide; lactam N-11)	B (a compound having 3 or more and less than 10 is denoted as B)	B (a compound having 3 or more and less than 10 is denoted as B)
CCCN1C(=O)CN(C)C(=O)[C@@H]2CCN2C(=O)[C@H]([C@@H](C)CC)NC(=O)[C@H](CC(C)C)N(C)C(=O)C[C@@H](C(=O)N2CCOCC2)N(C)C(=O)[C@H](C2CCCC2)N(C)C(=O)[C@](C)([C@@H](C)CC)NC(=O)[C@@H]2CCCN2C(=O)[C@H](CCc2cc(F)c(C(F)(F)F)c(F)c2)NC(=O)CN(C)C(=O)[C@@H]1Cc1ccc(C(F)(F)F)cc1 [PP0774] ([NMeL]I[Aze][Sar][NPrPhe(4-CF3)][Sar][hPhe(3,5-F2-4-CF3)]P[αMeI][NMeGly(cPent)][NMeD]-Morpholide; lactam N-11)	B (a compound having 3 or more and less than 10 is denoted as B)	B (a compound having 3 or more and less than 10 is denoted as B)
CCCN1C(=O)CN(C)C(=O)[C@@H]2CCN2C(=O)[C@H]([C@@H](C)CC)NC(=O)[C@H](CC(C)C)N(C)C(=O)C[C@@H](C(=O)N2CCOCC2)N(C)C(=O)[C@H](C2CCCC2)N(C)C(=O)[C@](C)(CCC)NC(=O)[C@@H]2CCCN2C(=O)[C@H](CCc2cc(F)c(C(F)(F)F)c(F)c2)NC(=O)CN(C)C(=O)[C@@H]1Cc1ccc(C(F)(F)F)cc1 [PP0775] ([NMeL]I[Aze][Sar][NPrPhe(4-CF3)][Sar][hPhe(3,5-F2-4-CF3)]P[X13][NMeGly(cPent)][NMeD]-Morpholide; lactam N-11)	B (a compound having 3 or more and less than 10 is denoted as B)	B (a compound having 3 or more and less than 10 is denoted as B)
CCCN1C(=O)CN(C)C(=O)[C@@H]2CCN2C(=O)[C@H]([C@@H](C)CC)NC(=O)[C@H](CC(C)C)N(C)C(=O)C[C@@H](C(=O)N2CCOCC2)N(C)C(=O)[C@H](C2CCCC2)N(C)C(=O)[C@](C)(CC(C)C)NC(=O)[C@@H]2CCCN2C(=O)[C@H](CCc2cc(F)c(C(F)(F)F)c(F)c2)NC(=O)CN(C)C(=O)[C@@H]1Cc1ccc(C(F)(F)F)cc1 [PP0776] ([NMeL]I[Aze][Sar][NPrPhe(4-CF3)][Sar][hPhe(3,5-F2-4-CF3)]P[αMeL][NMeGly(cPent)][NMeD]-Morpholide; lactam N-11)	B (a compound having 3 or more and less than 10 is denoted as B)	B (a compound having 3 or more and less than 10 is denoted as B)
CCCN1C(=O)CN(C)C(=O)[C@@H]2CCN2C(=O)[C@H]([C@@H](C)CC)NC(=O)[C@H](CC(C)C)N(C)C(=O)C[C@@H](C(=O)N2CCOCC2)N(C)C(=O)[C@H](C2CCCC2)N(C)C(=O)[C@](C)(Cc2ccccc2)NC(=O)[C@@H]2CCCN2C(=O)[C@H](CCc2cc(F)c(C(F)(F)F)c(F)c2)NC(=O)CN(C)C(=O)[C@@H]1Cc1ccc(C(F)(F)F)cc1 [PP0778] ([NMeL]I[Aze][Sar][NPrPhe(4-CF3)][Sar][hPhe(3,5-F2-4-CF3)]P[αMeF][NMeGly(cPent)][NMeD]-Morpholide; lactam N-11)	B (a compound having 3 or more and less than 10 is denoted as B)	B (a compound having 3 or more and less than 10 is denoted as B)
CCCN1C(=O)CN(C)C(=O)[C@@H]2CCN2C(=O)[C@H]([C@@H](C)CC)NC(=O)[C@H](CC(C)C)N(C)C(=O)C[C@@H](C(=O)N2CCOCC2)N(C)C(=O)[C@H](C2CCCC2)N(C)C(=O)[C@](C)(COC)NC(=O)[C@@H]2CCCN2C(=O)[C@H](CCc2cc(F)c(C(F)(F)F)c(F)c2)NC(=O)CN(C)C(=O)[C@@H]1Cc1ccc(C(F)(F)F)cc1 [PP0779] ([NMeL]I[Aze][Sar][NPrPhe(4-CF3)][Sar][hPhe(3,5-F2-4-CF3)]P[αMeS](Me)[NMeGly(cPent)][NMeD]-Morpholide; lactam N-11)	B (a compound having 3 or more and less than 10 is denoted as B)	B (a compound having 3 or more and less than 10 is denoted as B)
C=CCOC[C@]1(C)NC(=O)[C@@H]2CCCN2C(=O)[C@H](CCc2cc(F)c(C(F)(F)F)c(F)c2)NC(=O)CN(C)C(=O)[C@H](Cc2ccc(C(F)(F)F)cc2)N(CCC)C(=O)CN(C)C(=O)[C@@H]2CCN2C(=O)[C@H]([C@@H](C)CC)NC(=O)[C@H](CC(C)C)N(C)C(=O)C[C@@H](C(=O)N2CCOCC2)N(C)C(=O)[C@H](C2CCCC2)N(C)C1=O [PP0780] ([NMeL]I[Aze][Sar][NPrPhe(4-CF3)][Sar][hPhe(3,5-F2-4-CF3)]P[αMeS](Allyl)[NMeGly(cPent)][NMeD]-Morpholide; lactam N-11)	B (a compound having 3 or more and less than 10 is denoted as B)	B (a compound having 3 or more and less than 10 is denoted as B)
CCCN1C(=O)CN(C)C(=O)[C@@H]2CCN2C(=O)[C@H]([C@@H](C)CC)NC(=O)[C@H](CC(C)C)N(C)C(=O)C[C@@H](C(=O)N2CCOCC2)N(C)C(=O)[C@H](C2CCCC2)N(C)C(=O)C2(COC2)NC(=O)[C@@H]2CCCN2C(=O)[C@H](CCc2cc(F)c(C(F)(F)F)c(F)c2)NC(=O)CN(C)C(=O)[C@@H]1Cc1ccc(C(F)(F)F)cc1 [PP0782] ([NMeL]I[Aze][Sar][NPrPhe(4-CF3)][Sar][hPhe(3,5-F2-4-CF3)]P[Ac4c(3-oxa)][NMeGly(cPent)][NMeD]-Morpholide; lactam N-11)	B (a compound having 3 or more and less than 10 is denoted as B)	B (a compound having 3 or more and less than 10 is denoted as B)
CCCN1C(=O)CN(C)C(=O)[C@@H]2CCN2C(=O)[C@H]([C@@H](C)CC)NC(=O)[C@H](CC(C)C)N(C)C(=O)C[C@@H](C(=O)N2CCOCC2)N(C)C(=O)[C@H](C2CCCC2)N(C)C(=O)C2(CC(F)(F)C2)NC(=O)[C@@H]2CCCN2C(=O)[C@H](CCc2cc(F)c(C(F)(F)F)c(F)c2)NC(=O)CN(C)C(=O)[C@@H]1Cc1ccc(C(F)(F)F)cc1 [PP0783] ([NMeL]I[Aze][Sar][NPrPhe(4-CF3)][Sar][hPhe(3,5-F2-4-CF3)]P[Ac4c(3,3-F2)][NMeGly(cPent)][NMeD]-Morpholide; lactam N-11)	B (a compound having 3 or more and less than 10 is denoted as B)	B (a compound having 3 or more and less than 10 is denoted as B)
CCCN1C(=O)CN(C)C(=O)[C@@H]2CCN2C(=O)[C@H]([C@@H](C)CC)NC(=O)[C@H](CC(C)C)N(C)C(=O)C[C@@H](C(=O)N2CCOCC2)N(C)C(=O)[C@H](CC(F)(F)F)N(C)C(=O)C2(CCCC2)NC(=O)[C@@H]2CCCN2C(=O)[C@H](CCc2cc(F)c(C(F)(F)F)c(F)c2)NC(=O)CN(C)C(=O)[C@@H]1Cc1ccc(C(F)(F)F)cc1 [PP0784] ([NMeL]I[Aze][Sar][NPrPhe(4-CF3)][Sar][hPhe(3,5-F2-4-CF3)]P[Ac5c][NMeAbu(4,4,4-F3)][NMeD]-Morpholide; lactam N-11)	B (a compound having 3 or more and less than 10 is denoted as B)	B (a compound having 3 or more and less than 10 is denoted as B)
CCCN1C(=O)CN(C)C(=O)[C@@H]2CCN2C(=O)[C@H](C(CC)CC)NC(=O)[C@H](CC(C)C)N(C)C(=O)C[C@@H](C(=O)N2CCOCC2)N(C)C(=O)[C@H](C2CCCC2)N(C)C(=O)C2(CCCC2)NC(=O)[C@@H]2CCCN2C(=O)[C@H](CCc2cc(F)c(C(F)(F)F)c(F)c2)NC(=O)CN(C)C(=O)[C@@H]1Cc1ccc(C(F)(F)F)cc1 [PP0785] ([NMeL][Nva(3-Et)][Aze][Sar][NPrPhe(4-CF3)][Sar][hPhe(3,5-F2-4-CF3)]P[Ac5c][NMeGly(cPent)][NMeD]-Morpholide; lactam N-11)	B (a compound having 3 or more and less than 10 is denoted as B)	B (a compound having 3 or more and less than 10 is denoted as B)
CCCN1C(=O)CN(C)C(=O)[C@@H]2CCN2C(=O)[C@H](C2CC(F)(F)C2)NC(=O)[C@H](CC(C)C)N(C)C(=O)C[C@@H](C(=O)N2CCOCC2)N(C)C(=O)[C@H](C2CCCC2)N(C)C(=O)C2(CCCC2)NC(=O)[C@@H]2CCCN2C(=O)[C@H](CCc2cc(F)c(C(F)(F)F)c(F)c2)NC(=O)CN(C)C(=O)[C@@H]1Cc1ccc(C(F)(F)F)cc1 [PP0786] ([NMeL][X16][Aze][Sar][NPrPhe(4-CF3)][Sar][hPhe(3,5-F2-4-CF3)]P[Ac5c][NMeGly(cPent)][NMeD]-Morpholide; lactam N-11)	B (a compound having 3 or more and less than 10 is denoted as B)	B (a compound having 3 or more and less than 10 is denoted as B)
